Assay [1] can be described thus: Polymerization of vinyl acetate at 70° C. with benzoyl peroxide in the presence of nitroxide inhibitors. Conditions: vinyl acetate 10 ml, benzoyl peroxide 0.35 g, inhibitor 0.1 g (0.1 ml for 6), water bath 70° C. As to the method:
(§1) Testing was done to determine the effectiveness of various nitroxides in inhibiting the polymerization of various vinyl monomers.
(§2) A sample of vinyl monomer (10 ml) was placed in an open 25 ml test tube. To each tube benzoyl peroxide (0.35 g) and 0.1 g of nitroxide inhibitor was added, then the tubes were placed in a water bath maintained by a thermostat at 70° C. The selected vinyl monomers polymerize under these conditions without nitroxide inhibitors within a few minutes.
(§3) Vinyl monomers: acrylonitrile, vinyl acetate and methyl acrylate.
Polymerization of Vinyl Acetate at 70° C. in the presence of Nitroxide Inhibitors.

Assay [2] in a line: Polymerization of acrylonitrile at 70° C. with benzoyl peroxide in the presence of nitroxide inhibitors. Conditions: acrylonitrile 10 ml, benzoyl peroxide 0.35 g, inhibitor 0.1 g (0.1 ml for 6), water bath 70° C. The protocol: as §1, §2, §3
Polymerization of Acrylonitrile at 70° C. in the presence of Nitroxide Inhibitors.

Assay [3] is described as follows: Polymerization of methyl acrylate at 70° C. with benzoyl peroxide in the presence of nitroxide inhibitors. Conditions: methyl acrylate 10 ml, benzoyl peroxide 0.35 g, inhibitor 0.1 g (0.1 ml for 6), water bath 70° C. As to the method:
as §1, §2, §3
Polymerization of Methyl Acrylate at 70° C. in the presence of Nitroxide Inhibitors.

For `CC1(C)CC2(CC(C)(C)N1[O])OCCCO2` [Example 1, 1,5-dioxa-9-aza-8,8,10,10-tetramethylspiro[5,5]undec-9-yloxy], the “Inhibition Time” value in assay [1] was found to be 205 min; in assay [2], 40 min; in assay [3], 165 min.
For the compound `CC1(C)CC2(CC(C)(C)N1[O])OCCCO2` [Example 2, 1,5-dioxa-9-aza-8,8,10,10 tetramethylspiro[5,5]undec-9-yloxy], the figures for the “Inhibition Time” value in assay [1], in assay [2] and in assay [3] were 145 min, 60 min and 166 min, respectively.
Turning to `COC1CC(C)(C)N(O)C(C)(C)C1` [Inhibitor 3], the “Inhibition Time” value in assay [1] is on record as over 300 min; in assay [2], 305 min; in assay [3], over 300 min.
Regarding `CC1(C)CCCC(C)(C)N1O` [Inhibitor 5], the “Inhibition Time” value in assay [1] came out at 385 min; in assay [2], 60 min; in assay [3], 180 min.
